Reference: publication PMC8347709 (International Journal of Molecular Sciences, 2021)

Biological target: T1, hCB2R (Homo sapiens, UniProt P34972)
Assay: not given
Conditions: HEK-293 membranes, [3H]CP-55,940; cited from earlier work

T1 sequence (P34972 whole entry): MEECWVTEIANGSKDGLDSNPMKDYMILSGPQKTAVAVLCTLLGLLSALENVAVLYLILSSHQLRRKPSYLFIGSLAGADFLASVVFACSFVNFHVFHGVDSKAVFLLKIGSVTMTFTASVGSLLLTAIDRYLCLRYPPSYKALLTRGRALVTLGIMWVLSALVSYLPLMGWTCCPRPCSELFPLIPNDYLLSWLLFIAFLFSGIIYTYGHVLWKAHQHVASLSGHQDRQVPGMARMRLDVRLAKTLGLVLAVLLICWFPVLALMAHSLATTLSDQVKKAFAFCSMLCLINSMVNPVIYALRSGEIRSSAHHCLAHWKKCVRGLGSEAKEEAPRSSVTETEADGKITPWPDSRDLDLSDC

Compound | Ki
CC1CCC(NC(=O)c2cc3cccnc3n(CCCCF)c2=O)CC1 (stereo not shown) [compound 5, 1-(4-Fluorbutyl)-N-(4-methyl)-2-oxo-1,2-dihydro-1,8-naphthyridine-3-carboxamide] | 1.4 nM

Same assay, conditions: diastereomeric mixture; published value; cited from earlier work

Compound | Ki
CC1CCC(NC(=O)c2cc3cccnc3n(CCCCF)c2=O)CC1 (stereo not shown) [compound 5, 1-(4-Fluorbutyl)-N-(4-methyl)-2-oxo-1,2-dihydro-1,8-naphthyridine-3-carboxamide] | 1.3 nM

System: not given
Assay: not given
Parameters: method as in PMID 30342565, PMID 2173751
Conditions: cited from earlier work

Compound | LogD7.4
(−)-Δ9-trans-tetrahydrocannabinol [THC] | > 7

Biological target: T1, hCB2R
Assay: competitive radioligand displacement with [3H]WIN55212-2 on hCB2-CHO membrane preparations
Format: binding
Parameters: host or cells: CHO cells, stably transfected
Conditions: hCB2-CHO membranes, read-out: Ki(hCB2R)
Text: In brief, membrane preparations obtained from CHO cell lines stably transfected with either human CB1 (hCB1-CHO; obtained from Euroscreen, Gosselies, Belgium) or human CB2 (hCB2-CHO; obtained from Paul L. Prather, Department of Pharmacology and Toxicology, College of Medicine, University of Arkansas for Medical Sciences, Fayetteville, AR, USA) were used along with [^3H]SR141716A (1554 GBq/mmol; PerkinElmer Life and Analytical Sciences, Rodgau, Germany) and [^3H]WIN55212-2 (6438 GBq/mmol; PerkinElmer Life and Analytical Sciences, Rodgau, Germany), resp., as target-specific radioligands. The incubations were performed in 50 mM TRIS-HCl, pH 7.4, supplemented with 0.1% bovine serum albumin (BSA), 5 mM MgCl2, and 1 mM EDTA for 90 min at room temperature. Various concentrations of test compounds were administered, and the non-specific binding was determined in the presence of 10 μM 56. The values of bound activity were used to determine affinity (Ki) values using non-linear regression analysis (GraphPad Prism 2.01, v9, San Diego, CA, USA) and based on the KD values of [^3H]56 determined by saturation experiments [54].
Human CB2 receptors were expressed in CHO cells, and affinities were determined by competitive radioligand displacement experiments using [^3H]WIN552122. […]

Compound | Ki
C[C@H]1CC[C@@H](NC(=O)c2cc3cccnc3n(CCCCF)c2=O)CC1 [cis-5] | 6 nM
C[C@H]1CC[C@H](NC(=O)c2cc3cccnc3n(CCCCF)c2=O)CC1 [trans-5] | 52 nM

Biological target: T2, CB2R in rat spleen tissue (Rattus norvegicus, UniProt Q9QZN9)
T2 construct: from tissue; host or cells: rat spleen cryosections (female SPRD rat)
T2 sequence (Q9QZN9 1-360): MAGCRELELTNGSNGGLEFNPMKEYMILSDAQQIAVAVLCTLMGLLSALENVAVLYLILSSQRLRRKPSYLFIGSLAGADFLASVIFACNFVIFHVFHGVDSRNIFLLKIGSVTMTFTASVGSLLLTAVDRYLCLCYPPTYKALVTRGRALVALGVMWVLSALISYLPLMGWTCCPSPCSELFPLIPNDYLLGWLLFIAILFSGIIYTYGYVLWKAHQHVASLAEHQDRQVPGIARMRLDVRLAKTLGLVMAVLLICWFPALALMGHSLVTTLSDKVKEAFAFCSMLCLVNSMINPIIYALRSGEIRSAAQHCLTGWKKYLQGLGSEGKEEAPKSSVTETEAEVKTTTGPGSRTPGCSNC
Assay: not given
Parameters: method as in PMID 27713686
Conditions: previously reported; cited from earlier work

Compound | visualisation of CB2 receptors in rodent spleen tissue
Fc1ccc(-c2noc(CCCNc3cnc4ccc(OCC[18F])cc4c3)n2)c(Cl)c1 [[^18F]MA3] | inability to visualise CB2 receptors in rodent spleen tissue

Biological target: CB2
Assay: not given
Parameters: method as in PMID 29921889, PMID 33379862
Conditions: Figure 1; cited from earlier work

Compound | Ki
Cc1s/c(=N\C(=O)C2C(C)(C)C2(C)C)n(CCO[11CH3])c1C [[^11C]A-836339] | 0.7 nM
CCCCCn1cc(C(=O)NC23CC4CC(CC(C4)C2)C3)c(=O)c2cccc(O[11CH3])c21 [[^11C]KD2] | 1.7 nM
[11CH3]Oc1ccc2ncc(NCCCc3nc(-c4ccc(F)cc4Cl)no3)cc2c1 [[^11C]MA2] | 87 nM
CCCCOc1c(O[11CH3])ccc2cc(C(=O)NC3CCCCC3)c(=O)[nH]c12 [[^11C]NE40] | 9.6 nM
CCOCCn1cc(C(=O)NC23CC4CC(CC(C4)C2)C3)c(=O)c2cccc(O[11CH3])c21 [[^11C]RS-016] | 0.7 nM
CCOC(=O)C(CC)(CC)NC(=O)c1ccc(N2CC(O[11CH3])C2)c(OCC2CC2)n1 [[^11C]RSR-056] | 2.5 nM
CCCCOc1c(OCC[18F])ccc2cc(C(=O)NC3CCCCC3)c(=O)[nH]c12 [[^18F]1] | 36 nM
CCC(CC)(NC(=O)c1ccc(N2CC(OC)C2)c(OCC2CC2)n1)C(=O)OCCC[18F] [[^18F]2] | 6 nM
COc1cccc2c(=O)c(C(=O)NC34CC5CC(CC(C5)C3)C4)cn(CCOCCCC[18F])c12 [[^18F]AH-040] | 0.9 nM
COc1cccc2c(=O)c(C(=O)NC34CC5CC(CC(C5)C3)C4)cn(CCCOCCC[18F])c12 [[^18F]AH-043] | 6.3 nM
Cc1s/c(=N\C(=O)C2C(C)(C)C2(C)C)n(CCOCC[18F])c1C [[^18F]FC024] | 0.1 nM
Cc1s/c(=N\C(=O)C2C(C)(C)C2(C)C)n(CCCC[18F])c1C [[^18F]JHU94620] | 0.4 nM
Fc1ccc(-c2noc(CCCNc3cnc4ccc(OCC[18F])cc4c3)n2)c(Cl)c1 [[^18F]MA3] | 0.8 nM
CCOCCn1cc(C(=O)NC23CC4CC(CC(C4)C2)C3)c(=O)c2cccc(OCC[18F])c21 [[^18F]RS-122] | 72 nM
COc1cccc2c(=O)c(C(=O)NC34CC5CC(CC(C5)C3)C4)cn(CCOCCC[18F])c12 [[^18F]RS-126] | 1.2 nM
[2H]C([2H])([18F])C([2H])([2H])C([2H])([2H])OC(=O)C(CC)(CC)NC(=O)c1ccc(N2CC(OC)C2)c(OCC2CC2)n1 [[^18F]RoSMA-18-d6] | 6 nM
